pIC50: −log10 of the molar value. Read-outs that look alike come from different tables or passages of the source.
Experiments:
SARS-CoV-2 NSP3 Mac1 [1] = biological target: T1, SARS-CoV-2 NSP3 Mac1 (Severe acute respiratory syndrome coronavirus 2, UniProt P0DTD1); format: binding; details: for Refined occupancy: ligand occupancy after refinement (phenix.refine); for Comment (ligand modelled in the crystal structure): what was observed in density instead of the vendor structure
SARS-CoV-2 NSP3 Mac1 [2] = assay: Overall hit call (binding in crystallographic soaking or the HTRF-based binding assay)
From the text: Supplement pnas.2212931120.sd01.xlsx, sheet "Compound Summary" | column: HIT*

SARS-CoV-2 NSP3 Mac1 [3] = biological target: T1, SARS-CoV-2 NSP3 Mac1; format: binding; design: contains a conserved macrodomain enzyme (Mac1)
Summary of the method: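 Differential scanning fluorimetry using 5 µM Fluorescent Yellow dye in place of SYPRO Orange. Compounds run in triplicate at seven two-fold dilutions from 1,000 or 100 μM, with ΔTma taken against a DMSO control in the same plate region. Dose-response significance assessed by Spearman's coefficient between concentration and ΔTma.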

SARS-CoV-2 NSP3 Mac1 [4] = biological target: T1, SARS-CoV-2 NSP3 Mac1; assay: biochemical; format: binding; details: HTRF ADPr-peptide displacement from SARS-CoV-2 Mac1; read-out: IC50
[5] = PanDDA 1-BDC of the event, compound stock 100 mM, Echo dispense volume 80 nl
[6] = PanDDA event map 1-BDC, crystal soak, Compound_concentration 100 mM, PanDDA run dmso_34 or nohits_35 per dataset
[7] = PanDDA event map, 1 minus background density correction, crystal soaking of Mac1
[8] = crystal soak, Compound_concentration 100 mM, Echo dispense 40 nl, PanDDA run dmso_34 or nohits_35 per dataset
[9] = crystal soak, compound stock 100 mM, Echo dispense volume 80 nl
[10] = PanDDA 1-BDC of the event, compound stock 100 mM, Echo dispense volume 40 nl
[11] = crystal soak, compound stock 100 mM, Echo dispense volume 40 nl
[12] = ligand modeled in structure, compound stock 100 mM, Echo dispense volume 80 nl
[13] = ligand modeled in this dataset, crystal soak, Compound_concentration 100 mM

COC(=O)CC1CN(c2ncnc3[nH]c4cc(F)ccc4c23)CCO1 (stereo not shown) [LL114_0040]
1-BDC (SARS-CoV-2 NSP3 Mac1 [1]; [5]): 0.08
1-BDC (SARS-CoV-2 NSP3 Mac1 [1]; [6]): 0.11
1-BDC (PanDDA) (SARS-CoV-2 NSP3 Mac1 [1]; [7]): 0.08
1-BDC (SARS-CoV-2 NSP3 Mac1 [1]; PanDDA event map, crystal soak, Compound_concentration 100 mM, Echo_dispense_volume 40 nl): 0.08
PanDDA hit? (SARS-CoV-2 NSP3 Mac1 [1]; [8]): TRUE
PanDDA hit? (SARS-CoV-2 NSP3 Mac1 [1]; crystal soak, Compound_concentration 100 mM, Echo_dispense_volume 40 nl, PanDDA run (background map) dmso_34, nohits_35 or nohits_62): TRUE
PanDDA hit? (SARS-CoV-2 NSP3 Mac1 [1]; [9]): TRUE
Modeled? (SARS-CoV-2 NSP3 Mac1 [1]; ligand modeled, crystal soak, Compound_concentration 100 mM, Echo_dispense_volume 40 nl): TRUE
Refined occupancy (SARS-CoV-2 NSP3 Mac1 [1]; crystal soaking of Mac1): 16
HIT* (SARS-CoV-2 NSP3 Mac1 [2]): Y

O=S1(=O)CC(CNc2ncnc3[nH]c4cc(F)ccc4c23)C1 [LRH-0005]
1-BDC (SARS-CoV-2 NSP3 Mac1 [1]; [10]): 0.1
1-BDC (SARS-CoV-2 NSP3 Mac1 [1]; [5]): 0.1
1-BDC (PanDDA) (SARS-CoV-2 NSP3 Mac1 [1]; [7]): 0.1
PanDDA hit? (SARS-CoV-2 NSP3 Mac1 [1]; [11]): TRUE
PanDDA hit? (SARS-CoV-2 NSP3 Mac1 [1]; [9]): TRUE
Modeled? (SARS-CoV-2 NSP3 Mac1 [1]; [12]): TRUE
Refined occupancy (SARS-CoV-2 NSP3 Mac1 [1]; crystal soaking of Mac1): 20
HIT* (SARS-CoV-2 NSP3 Mac1 [2]): Y

O=S1(=O)CCC1CNc1ncnc2[nH]c3cc(F)ccc3c12 (stereo not shown) [LRH-0012]
1-BDC (SARS-CoV-2 NSP3 Mac1 [1]; [5]): 0.06
1-BDC (SARS-CoV-2 NSP3 Mac1 [1]; [6]): 0.07
1-BDC (PanDDA) (SARS-CoV-2 NSP3 Mac1 [1]; [7]): 0.07
PanDDA hit? (SARS-CoV-2 NSP3 Mac1 [1]; [8]): TRUE
PanDDA hit? (SARS-CoV-2 NSP3 Mac1 [1]; [9]): TRUE
Modeled? (SARS-CoV-2 NSP3 Mac1 [1]; [13]): TRUE
Refined occupancy (SARS-CoV-2 NSP3 Mac1 [1]; crystal soaking of Mac1): 14
HIT* (SARS-CoV-2 NSP3 Mac1 [2]): Y

O[C@@H]1CC[C@H](Nc2ncnc3[nH]c4cc(F)ccc4c23)C1 [LRH-0018]
1-BDC (SARS-CoV-2 NSP3 Mac1 [1]; [5]): 0.07
1-BDC (SARS-CoV-2 NSP3 Mac1 [1]; [6]): 0.07
1-BDC (PanDDA) (SARS-CoV-2 NSP3 Mac1 [1]; [7]): 0.07
PanDDA hit? (SARS-CoV-2 NSP3 Mac1 [1]; [8]): TRUE
PanDDA hit? (SARS-CoV-2 NSP3 Mac1 [1]; [9]): TRUE
Modeled? (SARS-CoV-2 NSP3 Mac1 [1]; [13]): TRUE
Refined occupancy (SARS-CoV-2 NSP3 Mac1 [1]; crystal soaking of Mac1): 14
HIT* (SARS-CoV-2 NSP3 Mac1 [2]): Y

O=C(O)[C@@H]1CCC[C@H](Nc2ncnc3[nH]c4cc(F)ccc4c23)C1 [LRH-0022]
1-BDC (SARS-CoV-2 NSP3 Mac1 [1]; [10]): 0.28
1-BDC (SARS-CoV-2 NSP3 Mac1 [1]; [5]): 0.32
1-BDC (PanDDA) (SARS-CoV-2 NSP3 Mac1 [1]; [7]): 0.32
PanDDA hit? (SARS-CoV-2 NSP3 Mac1 [1]; [11]): TRUE
PanDDA hit? (SARS-CoV-2 NSP3 Mac1 [1]; [9]): TRUE
Modeled? (SARS-CoV-2 NSP3 Mac1 [1]; [12]): TRUE
Refined occupancy (SARS-CoV-2 NSP3 Mac1 [1]; crystal soaking of Mac1): 64
Comment (ligand modelled in the crystal structure) (SARS-CoV-2 NSP3 Mac1 [1]): pyrimido-indole core only
HIT* (SARS-CoV-2 NSP3 Mac1 [2]): Y

[O-][n+]1cccc(Nc2ncnc3[nH]c4cc(F)ccc4c23)c1 [LRH-0031]
1-BDC (SARS-CoV-2 NSP3 Mac1 [1]; [10]): 0.18
1-BDC (SARS-CoV-2 NSP3 Mac1 [1]; [5]): 0.17
1-BDC (PanDDA) (SARS-CoV-2 NSP3 Mac1 [1]; [7]): 0.17
PanDDA hit? (SARS-CoV-2 NSP3 Mac1 [1]; [11]): TRUE
PanDDA hit? (SARS-CoV-2 NSP3 Mac1 [1]; [9]): TRUE
Modeled? (SARS-CoV-2 NSP3 Mac1 [1]; [12]): TRUE
Refined occupancy (SARS-CoV-2 NSP3 Mac1 [1]; crystal soaking of Mac1): 34
Comment (ligand modelled in the crystal structure) (SARS-CoV-2 NSP3 Mac1 [1]): pyrimido-indole core only
HIT* (SARS-CoV-2 NSP3 Mac1 [2]): Y

O=C(O)CC1CC(CNC(=O)c2cncc3sccc23)C1 (stereo not shown) [Z1558]
HIT* (SARS-CoV-2 NSP3 Mac1 [2]): Y

CC(Cc1ccco1)C(=O)N[C@@H](CC(=O)O)c1ccc2c(c1)OCO2 (stereo partly shown) [Z1877]
HIT* (SARS-CoV-2 NSP3 Mac1 [2]): Y

Cc1oc(CNc2ncnc3[nH]c4ccccc4c23)cc1C(=O)O [Z3124]
HIT* (SARS-CoV-2 NSP3 Mac1 [2]): Y

CC(F)(F)c1cncc(C(=O)NC(Cc2cncc(Br)c2)C(=O)O)c1 (stereo not shown) [Z3140]
HIT* (SARS-CoV-2 NSP3 Mac1 [2]): Y

O=C(NS(=O)(=O)Cc1ccc(Br)c(F)c1)c1cnn2ccccc12 [Z3209]
HIT* (SARS-CoV-2 NSP3 Mac1 [2]): Y

O=C1OCCN1C1CCN(c2ncnc3[nH]c4cc(F)ccc4c23)C1 (stereo not shown) [Z5107]
HIT* (SARS-CoV-2 NSP3 Mac1 [2]): Y

O=C(O)Cc1cccc(CNC(=O)c2ncnc3ccsc23)c1 [Z5712]
HIT* (SARS-CoV-2 NSP3 Mac1 [2]): Y

O=C(O)Cc1ccc(CNC(=O)c2ccnc3ccsc23)cc1 [Z6625]
HIT* (SARS-CoV-2 NSP3 Mac1 [2]): Y

COc1cncc(C(=O)NCCNC(=O)c2ncccc2O)c1 [Z6634]
HIT* (SARS-CoV-2 NSP3 Mac1 [2]): Y

CC(=O)Nc1nc(C)c(S(=O)(=O)Nc2ccc(C)c(C#N)c2)s1 [Z6707]
HIT* (SARS-CoV-2 NSP3 Mac1 [2]): Y

Cc1oc(C(N)=O)cc1S(=O)(=O)Nc1ccc(Br)c(C#N)c1 [Z6708]
HIT* (SARS-CoV-2 NSP3 Mac1 [2]): Y

Cc1oc(C(N)=O)cc1S(=O)(=O)Nc1cnc(Cl)c(C#N)c1 [Z6746]
HIT* (SARS-CoV-2 NSP3 Mac1 [2]): Y

O=C(O)c1ccc(F)c(CNC(=O)c2ccc3[nH]ccc3c2)c1 [Z7647]
HIT* (SARS-CoV-2 NSP3 Mac1 [2]): Y

CO[C@@H]1CN(c2ncnc3[nH]c4cc(F)ccc4c23)C[C@@H](CO)O1 [Z8973]
HIT* (SARS-CoV-2 NSP3 Mac1 [2]): Y

COC(=O)C1(CO)CCN(c2ncnc3[nH]c4cc(F)ccc4c23)C1 (stereo not shown) [Z9556]
HIT* (SARS-CoV-2 NSP3 Mac1 [2]): Y

O=C(NC1c2ccccc2CC1C(=O)O)c1ccc(NC(=O)C2CC2)cc1 (stereo not shown) [Z9604]
1-BDC (SARS-CoV-2 NSP3 Mac1 [1]; PanDDA 1-BDC value of the event, crystal soak, compound concentration 100 mM, per dataset): 0.04
1-BDC (SARS-CoV-2 NSP3 Mac1 [1]; [7]): 0.04
PanDDA hit? (SARS-CoV-2 NSP3 Mac1 [1]; crystal soak, compound concentration 100 mM, per dataset): TRUE
Modeled? (SARS-CoV-2 NSP3 Mac1 [1]; ligand modeled in the crystal structure, crystal soak, compound concentration 100 mM, per dataset): TRUE
Refined occupancy (SARS-CoV-2 NSP3 Mac1 [1]; crystal soaking of Mac1): 8
HIT* (SARS-CoV-2 NSP3 Mac1 [1]; overall hit flag: binding in crystallographic soaking or the HTRF-based binding assay): Y
Spearman est (compound concentration vs apparent Tm) (SARS-CoV-2 NSP3 Mac1 [3]; DSF dose responsiveness, 1 µM nsp3 mac1, adj p given): 0.76
DSF max dTma (SARS-CoV-2 NSP3 Mac1 [3]; maximal thermal upshift vs DMSO control): 0.79 °C
pIC50 (SARS-CoV-2 NSP3 Mac1 [4]): < 3.60

— article PMC9926234, “Iterative computational design and crystallographic screening identifies potent inhibitors targeting the Nsp3 macrodomain of SARS-CoV-2” (Proceedings of the National Academy of Sciences of the …, 2023)
